Key:
OPN [1] = experiment: Secreted OPN protein, immunoblot of conditioned medium, MDA-MB-435; assay type: cell-based, human; details: 10 μM and 20 μM cyclopamine
Description: Stable vector only and non-targeting (scrambled control) transfectants were also generated. Stable transfectants were selected on medium supplemented with 500 μg/ml Geneticin (Invitrogen). The four GLI1-knocked down clones chosen were based on the extent of GLI1 knockdown and were termed KO1, KO2, KO3, and KO4. The expression of OPN was restored in the KO1 cells by transfecting with pcDNA3.1-OPN. A corresponding vector-only transfectant was also generated. Transfectants were selected on medium containing Geneticin (500 μg/ml) and hygromycin (750 μg/ml). Serum-free conditioned medium harvested from approximately 3.0×10^6 cells after 24 hr was assayed for OPN by immunoblotting.
Western Blotting Analysis—Whole cell lysates were collected in Nonidet P-40 buffer (150 mM NaCl, 50 mM Tris, 1% Nonidet P-40). Isolation of cytosolic and nuclear fractions was done as previously reported (15). Total protein (30 μg) was resolved by SDS-PAGE gel and transferred to polyvinylidene difluoride membranes. […] Secreted OPN was assessed by loading an equal quantity of protein from the serum-free conditioned medium. […]

c-jun = c-jun mRNA (semi-quantitative PCR) and protein (Western blot) in A2780-CP70 cells; assay type: cell-based, human
Description: Controls included α-tubulin and histone deacetylase 3. C-jun antibody recognizes non-phosphorylated c-jun protein.
c-jun and c-fos mRNA expression was examined in A2780-CP70 cells transfected with anti-GLI1 shRNA construct at 6 hr, 24 hr, 48 hr, and 72 hr post-transfection using semi-quantative PCR analysis (FIG. 41).
A2780-CP70 cells were transfected with an IC50 dose of anti-Gli1 shRNA (treated) construct or vector (control). Total intracellular c-jun mRNA and c-jun protein was measured at 6 hr, 24 hr, 48 hr, and 72 hr.
C-jun mRNA and protein levels were further examined in cisplatin-resistant A2780-CP70 cells treated with an IC50 dose of anti-Gli1 shRNA. FIG. 78 depicts mRNA levels (panel A) and protein levels (panel B) in cells at 6, 24, 48, and 72 hours post-treatment.

[2] = system: OPN, MMP9, Cathepsin K (CTSK); experiment: OPN, MMP9 and CTSK expression by osteoclasts; assay type: cell-based, murine; details: DM supplemented with cyclopamine
From the text: Quantitative RT-PCR (qRT-PCR)-cDNA was generated using High Capacity Reverse Transcriptase Kit (Applied Biosystems, Foster City, Calif.). […] All reactions were done in triplicate.

OPN [3] = experiment: OPN expression in pre-osteoclastic RAW264.7 cells; assay type: cell-based, murine
Description: Western Blotting Analysis—Whole cell lysates were collected in NP-40 buffer (150 mM NaCl, 50 mM Tris, 1% NP-40). Total protein (30 μg) was resolved by SDS-PAGE gel and transferred to PVDF membranes. Membranes were immunoblotted overnight at 4° C. with antibodies to either SHH (Santacruz, Calif., USA) or IHH (Santacruz). Equal loading was confirmed with anti-β-tubulin (Cell Signaling, Danvers, Mass.). To assess OPN expression upon SHH treatment, […] were grown in 6-well plates in the presence of SHH. After 24 hours the cells were lysed in NP-40 buffer and 30 μg of each experimental group assessed by immunoblotting. To assess for the expression of OPN, MMP9 and CTSK, at the end of Day 6 of differentiation, all the different experimental groups were kept in serum free medium for 24 hrs and both, the conditioned media and whole cell lysates were collected and immunoblotted using antibodies to either anti-mouse OPN (Millipore, Bedford, Mass.), or CTSK (SantaCruz Biotech). Equal loading was confirmed with anti-β-actin (Sigma) antibody. Secreted MMP9 (Santa Cruz Biotech) was assessed by loading equal quantity of protein from the serum-free conditioned medium. […] Detection and quantification of proteins was done using Fuji LAS 3000 apparatus and Multigauge V3.1 software (Fujifilm, Valhalla, N.Y.). Band intensities were measured in arbitrary Units (AU). […]
Luciferase Assay—Cells were co-transfected with the OPN promoter construct, pGL3-OPNB and pSV-β-galactosidase (Promega) (Das, S., et al. (2009) J Biol Chem 284, 22888-22897). […] Readings were normalized to β-galactosidase. […]
Quantitative RT-PCR (qRT-PCR)-cDNA was generated using High Capacity Reverse Transcriptase Kit (Applied Biosystems, Foster City, Calif.). […] Following the experimental regime as described herein (for Osteoclast differentiation/activity) RNA was isolated using Trizol (Invitrogen) and assessed as describere herein. […]

Molecule	OPN protein in the secretome (OPN [1])	c-jun mRNA increase (c-jun; 70 μM cyclopamine, 6 hr vs 0 hr)	c-jun mRNA increase (peak) (c-jun; 70 μM cyclopamine, 24 hr vs 0 hr)	time of peak c-jun level (c-jun; A2780-CP70, IC50 dose of agent)	expression of OPN, MMP9 and CTSK by the osteoclasts [2]	OPN protein levels (OPN [3]; 24 hours post SHH)	OPN promoter activity (OPN [3]; 24 hours post-SHH)	OPN mRNA levels (OPN [3]; recombinant SHH)
CC1=C2C[C@H]3[C@@H](CC=C4C[C@@H](O)CC[C@@]43C)[C@@H]2CC[C@]12O[C@@H]1C[C@H](C)CN[C@H]1[C@H]2C [cyclopamine]	decreased levels of OPN protein	3 fold	13 fold	about 48 hours	significantly reduces the expression of OPN, MMP9 and CTSK	–	–	–
SHH: recombinant Sonic hedgehog ligand (R & D Systems)	–	–	–	–	–	increased protein levels of OPN	increase in the activity of the OPN promoter	dose-dependent significant (p<0.0001) increase in OPN mRNA levels

Source: patent publication US9464291B2, “Methods and compositions for the treatment of cancer” (University of South Alabama, priority 2012, dated 2016)
